The values below come from article PMC11256326, “Discovery of Heparin Mimetic, Potent, and Selective Inhibitors of Human Clotting Factor XIIIa” (ACS Omega, 2024).

Some results are limits rather than exact numbers.

The target of assay [1] is T1, thrombin (Homo sapiens, UniProt P00734).
T1 construct: Human plasma proteins such as FXIIIa, thrombin, factor Xa, and factor XIa; purchased Haematologic Technologies; host or cells: human plasma
Description: chromogenic substrate hydrolysis assay, thrombin. Type of assay: biochemical. As to conditions: for IC50: Tris-HCl pH 7.4, 37 °C, > values from highest concentration used; for thrombin HS (Hill slope) / thrombin ΔY (efficacy): pH 7.4, 37 °C. From the text: (§1) One of the motivations for targeting anion-binding sites on human FXIIIa was to achieve selectivity in inhibition over closely related enzymes such as other clotting serine proteases or other transglutaminases and cysteine proteases.
(§2) Human plasma proteins such as FXIIIa, thrombin, factor Xa, and factor XIa were procured from Haematologic Technologies. Recombinant human TG-2 was sourced from Tocris Bioscience. Their activities were validated according to the supplier’s instructions. Chromogenic substrates for thrombin and factor Xa were acquired from Biomedica Diagnostics, while the factor XIa chromogenic substrate (S-2366) was obtained from Diapharma. Dithiothreitol, N,N-dimethylcasein, and dansylcadaverine were purchased from Sigma Aldrich. Stock solutions of thrombin and factor XIa were prepared in 50 mM Tris-HCl buffer, pH 7.4, containing 150 mM sodium chloride, 0.1% PEG8000, and 0.02% Tween80. The stock solution of factor Xa was prepared in 20 mM Tris-HCl buffer, pH 7.4, containing 100 mM sodium chloride, 0.1% PEG8000, 2.5 mM CaCl2, and 0.02% Tween80. The stock solutions of FXIIIa and rTG-2 were prepared in 50 mM Tris-HCl, 1 mM CaCl2, 100 mM sodium chloride, 0.02% Tween80, 0.1% PEG8000, and 2 mg/mL dimethylcasein. Papain and its chromogenic substrate (N-α-benzoyl-L-arginyl-4-nitroanilide) were obtained from Sigma Aldrich. Papain was prepared in 50 mM Tris-HCl buffer, pH 7.4, containing 100 mM NaCl, 100 mM DTT, 2.5 mM CaCl2, 0.1% PEG8000, and 0.02% Tween80. Human plasma for coagulation assays was obtained from George King Bio-Medica for the clotting assays. Thromboplastin-D (PT reagent), APTT reagent containing ellagic acid, and 0.025 M solution of CaCl2 were obtained from Thermo Fisher Scientific. Results were reproduced at least three times.
(§3) The inhibitory potential of various heparin mimetics against other clotting factors, including thrombin, factor Xa, and factor XIa, was also examined using established chromogenic substrate hydrolysis assays.[47],[50] For instance, in each well of a 96-well microplate containing either 85 or 185 μL of 20–50 mM Tris-HCl buffer (pH 7.4), supplemented with 100–150 mM NaCl, 0.1% PEG8000, and 0.02% Tween80 at either 25 or 37 °C, 5 μL of the inhibitor (or high purity water) and 5 μL of the enzyme were added. The final concentrations of the enzymes were 6 nM (thrombin), 1.09 nM (factor Xa), and 0.8 nM (factor XIa). After a 5 min incubation period, 5 μL of Spectrozyme TH (final concentration: 0.050 mM), Spectrozyme FXa (0.125 mM), or factor XIa substrate (0.35 mM) was swiftly added, and the residual enzyme activity was gauged from the initial rate of increase in absorbance at λ405 nm. The relative residual enzyme activity was calculated as a function of the inhibitor concentration. If 50% or more of the enzyme was inhibited, the results were then plotted using eq 1 to determine the corresponding IC50 values.

Assay [2] has as its system thrombin. Description: chromogenic substrate hydrolysis assay, thrombin. Type of assay: biochemical, human.
Description: as §1, §2, §3

For a further assay, the target named is T2, factor Xa (Homo sapiens, UniProt P00742).
T2 construct: Human plasma proteins such as FXIIIa, thrombin, factor Xa, and factor XIa; purchased Haematologic Technologies; host or cells: human plasma
T2 sequence (P00742 235-488 limits assumed): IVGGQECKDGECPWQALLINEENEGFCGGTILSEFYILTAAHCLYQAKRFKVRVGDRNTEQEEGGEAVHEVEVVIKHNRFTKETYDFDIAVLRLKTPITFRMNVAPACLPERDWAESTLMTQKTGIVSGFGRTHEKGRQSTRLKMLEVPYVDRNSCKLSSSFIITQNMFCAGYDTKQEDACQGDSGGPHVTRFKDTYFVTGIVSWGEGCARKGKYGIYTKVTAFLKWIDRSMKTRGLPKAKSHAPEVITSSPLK
T2 sequence (P00742 41-179 limits assumed): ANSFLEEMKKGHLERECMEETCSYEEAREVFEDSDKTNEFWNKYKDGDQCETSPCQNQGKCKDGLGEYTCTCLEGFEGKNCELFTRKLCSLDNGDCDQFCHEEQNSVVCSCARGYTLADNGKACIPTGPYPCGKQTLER
Put plainly: chromogenic substrate hydrolysis assay, factor Xa. It is filed as biochemical. As to conditions: for IC50: Tris-HCl pH 7.4, 37 °C, > values from highest concentration used, read-out: FXa IC50; for FXa HS (Hill slope) / FXa ΔY (efficacy): pH 7.4, 37 °C.
Description: as §1, §2, §3

The target in the next assay is T3, factor XIa (Homo sapiens, UniProt P03951).
T3 construct: Human plasma proteins such as FXIIIa, thrombin, factor Xa, and factor XIa; purchased Haematologic Technologies; host or cells: human plasma
T3 sequence (P03951 388-625 limits assumed): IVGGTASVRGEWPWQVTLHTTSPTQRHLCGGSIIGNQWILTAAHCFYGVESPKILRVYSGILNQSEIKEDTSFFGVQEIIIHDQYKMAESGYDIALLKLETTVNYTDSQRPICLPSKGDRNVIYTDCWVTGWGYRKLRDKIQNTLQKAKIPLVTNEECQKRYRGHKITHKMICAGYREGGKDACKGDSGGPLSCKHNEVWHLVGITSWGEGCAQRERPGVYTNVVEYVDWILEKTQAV
T3 sequence (P03951 19-387 limits assumed): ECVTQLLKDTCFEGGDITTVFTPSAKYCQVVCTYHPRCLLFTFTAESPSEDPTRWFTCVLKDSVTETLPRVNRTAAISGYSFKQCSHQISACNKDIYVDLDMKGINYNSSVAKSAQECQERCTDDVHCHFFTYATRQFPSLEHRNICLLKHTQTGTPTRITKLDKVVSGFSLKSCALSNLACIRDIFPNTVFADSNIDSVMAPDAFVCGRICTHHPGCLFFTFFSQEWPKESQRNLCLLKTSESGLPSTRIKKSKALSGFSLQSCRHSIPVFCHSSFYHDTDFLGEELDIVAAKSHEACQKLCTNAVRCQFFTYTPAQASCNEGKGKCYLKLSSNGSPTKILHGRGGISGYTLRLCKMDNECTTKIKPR
Put plainly: chromogenic substrate hydrolysis assay, factor XIa. Type of assay: biochemical. As to conditions: for IC50: Tris-HCl pH 7.4, 37 °C, > values from highest concentration used, read-out: FXIa IC50; for FXIa HS (Hill slope) / FXIa ΔY (efficacy): pH 7.4, 37 °C.
Description: as §1, §2, §3

For the next assay, the system named is normal human plasma. Put plainly: activated partial thromboplastin time (APTT) of normal human plasma. Type of assay: biochemical. The settings on record: for APTT2X (concentration required to double APTT): normal human plasma, in vitro. As for the experimental part:
To further evaluate the selectivity as well as the potential toxicity of inhibitors, we studied their effects on the clotting times of normal human plasma as well as their effects on the proliferation of three cell lines. On the one hand, the inhibitors’ effects on activated partial thromboplastin time (APTT) and prothrombin time (PT) were measured, as described earlier under in vitro conditions,[52]−[55] using variable concentrations (0–2000 μM) (Table 3). […] On the other hand, the antiproliferative properties of inhibitors 13 and 16 were evaluated in three cell lines of breast (MCF-7), intestine (CaCo-2), and kidney (HEK-293) (Figure 5B), as described earlier.[56] […] Overall, inhibitor 16 can be considered for further development as a potent, selective, and nontoxic inhibitor of human FXIIIa.
Clotting times, including activated partial thromboplastin time (APTT) and prothrombin time (PT), were assessed in normal human plasma utilizing the BBL Fibrosystem fibrometer from Becton–Dickinson, as detailed in previous publications.[51]−[54] For the PT assay, thromboplastin-D was dissolved in 4 mL of highly purified water and then warmed to 37 °C. Subsequently, 10 μL of the inhibitor was added to 90 μL of normal human plasma and incubated for 30 s. Following this, 200 μL of prewarmed PT reagent was added, and the clotting time was recorded. In the APTT assay, 10 μL of the inhibitor was combined with 90 μL of normal human plasma and 100 μL of prewarmed APTT reagent (0.2% ellagic acid). After incubation for 4 min at 37 °C, clotting was initiated by adding 100 μL of prewarmed 0.025 M CaCl2, and the clotting time was documented. Multiple concentrations of each molecule were employed in both assays to establish a concentration vs effect curve.

Usually IC50 stands for the concentration at which inhibition is half-maximal. As for `Nc1c(S(=O)(=O)O)cc(Nc2ccc(Nc3nc(Cl)nc(Nc4ccccc4S(=O)(=O)O)n3)c(S(=O)(=O)O)c2)c2c1C(=O)c1ccccc1C2=O` [compound 13], at thrombin [1], the IC50 turned out to be 86.9 ± 33.6 µM, the “thrombin HS (Hill slope)” value is 1.9 ± 1.5 and the “thrombin ΔY (efficacy)” value is recorded as 43 ± 11%. Also, the “selectivity index for FXIIIa over thrombin” value with thrombin [2] was 28 fold. Further, on factor Xa, the “selectivity index for FXIIIa over factor Xa” value was found to be 20 fold, the concentration for half-maximal inhibition (IC50) was 63.5 ± 13 µM, the “FXa HS (Hill slope)” value worked out at 1.5 ± 0.5 and the “FXa ΔY (efficacy)” value came to 87 ± 4%. Further, at factor XIa, the “selectivity index for FXIIIa over factor XIa” value is above 48 fold and the IC50 is above 150 µM. Also, in the assay on normal human plasma, the “APTT2X (concentration required to double APTT)” value (from here on “APTT2X”) was 1187.2 ± 175 µM.

On thrombin [1], `Nc1c(/N=N/c2ccc(S(=O)(=O)CCOS(=O)(=O)O)cc2)c(S(=O)(=O)O)cc2cc(S(=O)(=O)O)c(/N=N/c3ccc(S(=O)(=O)CCOS(=O)(=O)O)cc3)c(O)c12` [compound 16] returned an IC50 above 500 µM. Moreover, the “selectivity index for FXIIIa over thrombin” value with thrombin [2] is listed as above 208 fold. At factor Xa, the “selectivity index for FXIIIa over factor Xa” value is listed as above 208 fold and the IC50 is above 500 µM. At factor XIa, the “selectivity index for FXIIIa over factor XIa” value is reported as above 65 fold and the half-maximal inhibitory concentration (IC50) was above 150 µM. Further, in the assay on normal human plasma, the “concentration to double APTT as fold of the FXIIIa-IC50” value was above 290 fold and the “APTT2X” value amounted to 704.6 ± 69 µM.

In the case of `COc1cc(-c2ccc(/N=N/c3ccc4c(S(=O)(=O)O)cc(S(=O)(=O)O)c(N)c4c3O)c(OC)c2)ccc1/N=N/c1ccc2c(S(=O)(=O)O)cc(S(=O)(=O)O)c(N)c2c1O` [compound 19], at thrombin [1], the IC50 is above 100 µM. In addition, the “selectivity index for FXIIIa over thrombin” value in the assay with thrombin [2] is on record as “at least 7 fold”. On factor Xa, the “selectivity index for FXIIIa over factor Xa” value is on record as “at least 7 fold” and the half-inhibitory concentration (IC50) is above 100 µM. Further, at factor XIa, the IC50 was 6.2 ± 0.4 µM, the “FXIa HS (Hill slope)” value is listed as 1.5 ± 0.1 and the “FXIa ΔY (efficacy)” value came to 106 ± 3%. Besides, the “APTT2X” value with normal human plasma came to 1840.7 ± 88 µM.

On thrombin [1], `Nc1c(/N=N/c2ccc(Nc3nc(Cl)nc(Nc4cccc(S(=O)(=O)O)c4)n3)cc2S(=O)(=O)O)c(S(=O)(=O)O)cc2c(O)c(/N=N/c3ccc(Nc4nc(Cl)nc(Nc5cccc(S(=O)(=O)O)c5)n4)cc3S(=O)(=O)O)ccc12` [compound 14] registered an IC50 above 500 µM. In addition, on factor Xa, the “selectivity index for FXIIIa over factor Xa” value is 6 fold, the IC50 was 31 ± 5.7 µM, the “FXa HS (Hill slope)” value is on record as 2.5 ± 0.9 and the “FXa ΔY (efficacy)” value amounted to 53 ± 5%. Besides, on factor XIa, the “selectivity index for FXIIIa over factor XIa” value is on record as above 30 fold and the IC50 was above 150 µM. Besides, the “APTT2X” value in the assay on normal human plasma was found to be 583 ± 60 µM.

For the compound `Cc1cc(-c2ccc(/N=N/c3ccc4c(S(=O)(=O)O)cc(S(=O)(=O)O)c(N)c4c3O)c(C)c2)ccc1/N=N/c1ccc2c(S(=O)(=O)O)cc(S(=O)(=O)O)c(N)c2c1O` [compound 18], at thrombin [1], the “thrombin HS (Hill slope)” value worked out at 2.6 ± 1.0 and the “thrombin ΔY (efficacy)” value came out at 62 ± 5%. In addition, at factor Xa, the “FXa HS (Hill slope)” value amounted to 1.9 ± 0.2 and the “FXa ΔY (efficacy)” value is 80 ± 2%. In addition, on factor XIa, the “FXIa HS (Hill slope)” value is given as 1.9 ± 0.3 and the “FXIa ΔY (efficacy)” value was found to be 104 ± 3%. Besides, in the assay on normal human plasma, the “APTT2X” value was found to be 224.3 ± 20 µM.
